Values joined by “and” are separate entries in the source; they are usually repeats but may differ in a detail not shown here. Equal values may be shown once.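 These data come from cells grown in 96-well plates and exposed to compound for 48 hours at five concentrations. The concentration for 50% growth inhibition is given as GI50. Definition used: TGI = concentration required for complete inhibition of growth.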 Where a SMILES comes first, the peptide text is derived from it. [ ]: non-standard residue; d: D form.
What was measured:
Assay in all cases: growth of human tumour cells (NCI), 48 h
HOP-92 NSCLC = system: HOP-92 NSCLC
EKVX NSCLC = system: EKVX NSCLC
RPMI-8226 leukemia = system: RPMI-8226 leukemia
786-0 renal = system: 786-0 renal
COLO 205 colon = system: COLO 205 colon
MALME-3M melanoma = system: MALME-3M melanoma
OVCAR-4 ovarian = system: OVCAR-4 ovarian
K-562 leukemia = system: K-562 leukemia
SN12C renal = system: SN12C renal
TK-10 renal = system: TK-10 renal

Row | Compound | GI50 (HOP-92 NSCLC) [µM] | TGI (HOP-92 NSCLC) [µM] | GI50 (EKVX NSCLC) [µM] | TGI (EKVX NSCLC) | GI50 (RPMI-8226 leukemia) [µM] | TGI (RPMI-8226 leukemia) [µM] | GI50 (786-0 renal) [µM] | TGI (786-0 renal) | GI50 (COLO 205 colon) [µM] | TGI (COLO 205 colon) [µM] | GI50 (MALME-3M melanoma) [µM] | TGI (MALME-3M melanoma) | GI50 (OVCAR-4 ovarian) [µM] | TGI (OVCAR-4 ovarian) | GI50 (K-562 leukemia) [µM] | TGI (K-562 leukemia) [µM] | GI50 (SN12C renal) [µM] | TGI (SN12C renal) | GI50 (TK-10 renal) [µM] | TGI (TK-10 renal)
1 | CSc1nc2ccc(C)cc2cc1/C=C1/C=C(c2ccccc2)NC1=O | 2.85 | 13.4 | 13.1 | > 100 µM | 8.9 | > 100 | 2 | 5.89 µM | 5.9 | > 100 | 3.08 | 25.9 µM | 0.296 | 1.03 µM | 8.83 | > 100 | 4.53 | 32.3 µM | 2.63 | 8.46 µM
2 | CC(=O)/C(=C/N1CCN(C(=O)c2ccco2)C1=S)C(=O)c1ccccc1 | 11.1 | 32.1 | 7.9 | 21.3 µM | 3.79 | 18.2 | 11.2 | 25.1 µM | 16.5 | 45.1 | 9.28 | 46.7 µM | 20.1 | 37.4 µM | 6.66 | 41.6 | 7.65 | 15.2 µM | 10.6 | 28.6 µM
3 | CCCCCCCCc1cc(O)ccc1O | 4.65 | 21.1 | 18.1 | 61.1 µM | 10.5 | 48.5 | 17.5 | 34.5 µM | 30.1 | 68.7 | 16.6 | 34.4 µM | 14.8 | 39.2 µM | 14.9 | 67.5 | 14.3 | 27.4 µM | 1.46 | 22.7 µM
4 | COC(=O)Nc1nc2ccc(C(=O)c3cccs3)cc2[nH]1 | > 100 |  | 0.584 | 15.2 µM and > 100 µM | 0.407 |  | 0.261 | 29.8 µM and > 100 µM |  | 2.09 | 0.296 | 43.5 µM and > 100 µM |  | 70.9 µM and > 100 µM |  | 42.5 | 0.729 | 32.9 µM and > 100 µM |  | 60.4 µM and > 100 µM
5 | C[C@@H]1Cc2c(ccc3[nH]ncc23)[C@@H](c2ccc(NC3CN(CCCF)C3)cn2)N1CC(F)(F)F | 3.1 | 20.1 | 28.9 | > 100 µM | 18.6 | 47.4 | 14.4 | 28.4 µM | 16.5 | 35.5 | 12.4 | 26.6 µM | 32.9 | > 100 µM | 19.4 | 54.9 | 24 | 79 µM | 17.9 | 44.7 µM
6 | CCN(CC)CCNc1ccc([N+](=O)[O-])c2nc3ccc(OC)cc3c(N)c12 |  | 3.19 |  | 3.28 µM |  | 0.704 |  | 1.66 µM |  | 1.65 |  | 3.61 µM |  | 1.91 µM |  | 0.665 |  | 2.83 µM |  | 2.93 µM
7 | CCOC(=O)N(O)c1ccc(/C=C/c2ccccc2)cc1 | 4.96 | 35.7 | 9.05 | 63.6 µM | 5.08 | 38.8 | 10.9 | > 51.1 µM | 13.2 | 38.5 | 19.5 | 61.4 µM | 7.21 | > 84.2 µM | 5.88 | > 100 | 14.7 | > 100 µM | 2 | 6.75 µM
8 | Cc1c(C2CCSc3ccccc3N2)sc2ccccc12 (centres undefined) |  | > 100 |  | > 100 µM |  | > 100 |  | > 100 µM |  | > 100 |  | > 100 µM |  | > 100 µM |  | > 100 |  | > 100 µM |  | > 100 µM
9 | CSCC[C@H](NC(=O)[C@@H](N)CC(N)=O)C(=O)N[C@@H](Cc1c[nH]c2ccccc12)C(=O)N[C@@H](CCC(N)=O)C(=O)N[C@@H](CCC(=O)O)C(=O)N[C@H](C(=O)NCC(=O)N[C@@H](CCCCN)C(=O)N[C@H](C)C(=O)O)C(C)C (H-NMWQEVGK[dA]-OH) |  | > 100 |  | > 100 µM |  | > 100 |  | > 100 µM |  | > 100 |  | > 100 µM |  | > 100 µM |  | > 100 |  | > 100 µM |  | > 100 µM
10 | Cc1cn2cc(-c3ccc4c(c3)CC(=O)N4)nc2s1 | > 100 | > 100 | 79.2 | > 100 µM | 35.9 | > 100 | > 100 | > 100 µM | > 100 | > 100 | > 100 | > 100 µM | > 100 | > 100 µM | 61.9 | > 100 | > 100 | > 100 µM | > 100 | > 100 µM
11 | C=C(CN1CCN(c2ccc(F)c(Cl)c2)CC1)c1ccc(C(=O)Nc2ccccc2N)cc1 | 2.15 | 11.6 | 15.8 | > 100 µM | 1.46 | 5.1 | 2.88 | 13.4 µM | > 100 | > 100 | 4.35 | 37.2 µM | > 100 | > 100 µM | 2.41 | 14.2 | 5.1 | 59.5 µM | 18.2 | 97.5 µM

Source: PubChem BioAssay (NCI)
